This is an account of results in patent US7220784B2, “Substituted stilbenes and their reactions” (priority 2000, dated 2007).

The test system of assay [1] is liver metastatic T50:80 tumours. In words: Anti-vascular effects, histological examination of T50:80 tumours. Format: in vivo, mice. As to the method:
(2) Competition for the colchicine binding site on tubulin. The figure quoted represents the % of ^3H-colchicine bound following co-incubation of test compound and ^3H-cochicine with isolated tubulin. Where ester pro-drugs were used the experiments were carried out in the presence and absence of porcine liver esterase. • (3) Cytotoxicity/growth inhibition assay. This was carried out by the MTT assay. • (4) Permeability (shape-change) assay in endothelial cells. This was carried out using a method based on that of Watts et al. (Anticancer Res., 17, 71–75, (1997)). This involved the diffusion of a fluorescently labelled dextran through a barrier of endothelial cells (HUVEC) grown to confluence on a porous membrane. […] The anti-vascular effects of the agents were monitored by either positron emission tomography (PET) or by histologogical examination following treatment of mice bearing T50:80 murine breast tumours, or H460 human lung tumours. • (6) Anti-tumour efficacy of agents was determined in xenografts of H460 human lung cancer. Animals (n=5) were trated either with 5 daily injections and tumour size measured with time following treatment. • (7) The pharmacokinetic profile of agents was determined in mice following injection with drug. Blood was taken at various times following treatment and analysed by HPLC with UV detection. […]

The subject of a further assay is K562. Kind of assay: IC50 of aliquots after ex situ irradiation in a photochemical reactor. The settings on record: Homo sapiens, K562, light or radiation study, read-out: IC50 (K562) (nM).
In a further assay the test system is K562 cells. In words: In situ ultra violet irradiation of dosed K562 cells, IC50. Format: cell-based, human. The settings on record: Homo sapiens, read-out: IC50 K562.

Like-named read-outs stand apart in the source and are kept apart here.

For the molecule `COc1ccc(C=Cc2cc(OC)c(OC)c(OC)c2)cc1F` [Compound 97-64H], in assay [1] (2/3 or 3/4 of MTD, 2 hr, 4 hr, 24 hr, 48 hr after administration), the “examination of tumours for vascular damage” value is listed as “tumour necrosis, blocked vessels, infiltration with red blood cells”. Besides, the “time by which vascular effects are seen” value in assay [1] (mouse, in vivo) was at most 2 h.

The IC50 is the midpoint of a concentration-inhibition curve. As for `COc1ccc(/C=C/c2cc(OC)c(OC)c(OC)c2)cc1O` [trans-CA-4, trans-combretastatin A-4], the half-maximal inhibitory concentration (IC50) in the assay on K562 (0 h) was found to be 4000 nM; in the assay on K562 (0.5 min), 310 nM; in the assay with K562 (1 min), 530 nM; in the assay on K562 (0.025 h) it was 50 nM; with K562 (2 min), 20 nM; with K562 (0.05 h), 12 nM. The IC50 in the assay with K562 (4 min) is 9 nM; in the assay on K562 (5 min) it was 10 nM; in the assay with K562 (0.125 h), 3 nM; in the assay on K562 (10 min), 6 nM; in the assay with K562 (12.5 min), 4 nM; with K562 (0.25 h) it was 1 nM. Besides, the 50% inhibitory concentration (IC50) in the assay with K562 (17.5 min) turned out to be 3 nM; in the assay on K562 (20 min), 2 nM; in the assay with K562 cells (K562, 0 h, in situ UV 0 mins (Table 6)) it was 1200 nM; in the assay with K562 cells (K562, 1 min, in situ UV 1 mins (Table 6)), 3.6 nM; with K562 cells (K562, 2 min, in situ UV 2 mins (Table 6)), 2.9 nM; in the assay with K562 cells (K562, 0.05 h, in situ UV 3 mins (Table 6)) it was 1.7 nM. Moreover, the half-maximal inhibitory concentration (IC50) in the assay with K562 cells (K562, 4 min, in situ UV 4 mins (Table 6)) was 4.4 nM; with K562 cells (K562, 5 min, in situ UV 5 mins (Table 6)), 2.7 nM; in the assay with K562 cells (K562, 0.1 h, in situ UV 6 mins (Table 6)), 2.9 nM; in the assay on K562 cells (K562, 7 min, in situ UV 7 mins (Table 6)), 1.9 nM; in the assay with K562 cells (K562, 8 min, in situ UV 8 mins (Table 6)), 3 nM; in the assay with K562 cells (K562, 0.15 h, in situ UV 9 mins (Table 6)), 2.5 nM. In addition, the half-inhibitory concentration (IC50) in the assay with K562 cells (K562, 12.5 min, in situ UV 12.5 mins (Table 6)) was found to be 2.4 nM; in the assay on K562 cells (K562, 0.25 h, in situ UV 15.0 mins (Table 6)), 2 nM; in the assay on K562 cells (K562, 17.5 min, in situ UV 17.5 mins (Table 6)), 1.7 nM; in the assay on K562 cells (K562, 20 min, in situ UV 20.0 mins (Table 6)) it was 2.7 nM; in the assay on K562 cells (K562, in situ UV, repeated experiment, 0 secs (Table 7)), 580 nM; with K562 cells (K562, in situ UV, repeated experiment, 5 secs (Table 7)), 35 nM. For the same molecule, the IC50 was 40 nM with K562 cells (K562, in situ UV, repeated experiment, 10 secs (Table 7)); 20 nM with K562 cells (K562, in situ UV, repeated experiment, 15 secs (Table 7)); 18 nM in the assay on K562 cells (K562, in situ UV, repeated experiment, 20 secs (Table 7)); 17 nM with K562 cells (K562, in situ UV, repeated experiment, 25 secs (Table 7)); 15 nM with K562 cells (K562, in situ UV, repeated experiment, 30 secs (Table 7)); 11 nM with K562 cells (K562, in situ UV, repeated experiment, 35 secs (Table 7)). For the same molecule, the concentration for half-maximal inhibition (IC50) amounted to 11 nM in the assay with K562 cells (K562, in situ UV, repeated experiment, 40 secs (Table 7)); 9 nM in the assay on K562 cells (K562, in situ UV, repeated experiment, 45 secs (Table 7)); 9 nM with K562 cells (K562, in situ UV, repeated experiment, 50 secs (Table 7)); 9 nM in the assay on K562 cells (K562, in situ UV, repeated experiment, 55 secs (Table 7)); 8 nM in the assay with K562 cells (K562, in situ UV, repeated experiment, 60 secs (Table 7)).
